Source: US8501183B2, “Immunogenic compositions and diagnostic and therapeutic uses thereof” (The Walter and Eliza Hall Institute of Medical Research, priority 2002, dated 2013)

Tests used:
[1] = IgG response of mice immunized with synthetic GPI glycan conjugate; format: in vivo; details: rodents
Procedure: All experiments were in accordance with local Animal Ethics Committee regulations. Young adult C57BL6 mice from Jackson Laboratories were pre-bled and inoculated with 6.5 μg KLH-glycan (0.176 μg glycan, n=16) or KLH-cysteine (sham-immunized, n=24) emulsified in Freund's Complete Adjuvant, and boosted with equal amounts of immunogen in Incomplete Freund's Adjuvant at 2 weekly intervals. After two boosts they were rested and injected i.p with 1×10^6 P. berghei ANKA-infected erythrocytes. Naïve mice (n=12) served as unimmunized controls. Parasitemias were assessed from Giemsa-stained thin films. Mortality was checked twice daily. Mice were judged as developing cerebral malaria if displaying neurological signs such as loss of reflex or ataxia, and dying between days 5 to 12 post-infection with relatively low parasitemia levels (below 15%). Differences in survival curves of P. berghei infected mice across this time-period were assessed by Cox-Mantel logrank transformation on Kaplan-Meier plots. Deaths from day 14 onwards with high parasitaemia (>60%) and low rates of cerebral vascular occlusion were ascribed to hyperparasitaema/haemolysis, and all animals failing to develop cerebral malaria eventually succumbed to this syndrome.
The synthetic malarial GPI glycan was immunogenic in rodents. […] No reactivity to GPI glycan was detected in pre-immune sera or in animals receiving sham-conjugated KLH. […]

[2] = system: anti-Glycan antibodies in human serum; test: ELISA of human serum against synthetic glycan antigen; format: binding; details: serum of a malaria-exposed Papua New Guinean donor; BSA-conjugated glycan
[3] = system: human antibody responses to the native GPI toxin; test: Competition ELISA, synthetic glycan vs GPI; format: binding; details: competitor in molar excess
[4] = ELISA titres of anti-GPI antibodies in sera of immunized mice; format: in vivo; details: mice immunized with free GPI in IFA
Procedure: Antigen (GPI-OVA, Glycan-OVA, BSA-PI, OVA or BSA alone) at 20 μg/ml in phosphate binding buffer was incubated overnight in 50 μl volumes in flat-bottomed Immunlon 96-well plates, followed by extensive washing with buffer. The plates were blocked with 1% BSA, 1% OVA in PBS for several hours. From a 1/32 dilution, sera were titrated two-fold in 1% BSA, 1% OVA in PBS, and 50 μl aliquots incubated in triplicate for 2 hours at room temperature, followed by extensive washing with 1% BSA, 1% OVA 0.05% Tween-20 in PBS. An aliquot of affinity purified, biotin-labelled isotype specific goat anti-mouse second antibody was incubated as above, followed by further washing and the addition of streptavidin-alkaline phosphatase. After 30 minutes the plates were washed again and colourimetric development initiated by the addition of p-Nitrophenylphosphate in diethanolamine buffer. Background binding to BSA/OVA-coated plates was determined in parallel. […]
Mice were immunized by three successive boosts of free intact malarial GPI emulsified in Incomplete Freund's Adjuvant spaced two weeks apart. […] After immunization, sera were bled and the titres of anti-GPI antibodies determined by ELISA. […] Parasitaemia, the development of neurological complications, and mortality were recorded daily. […]

[5] = Competition / PI-specific ELISA, epitope mapping of anti-GPI antibodies; format: binding; details: sera of mice immunized with free GPI
Procedure: Coupling of the purified GPI glycan to proteins was undertaken as above. To measure anti-lipid reactivities, we utilized commercially available phosphatidylinositol from Sigma with identical composition to the malarial GPI, namely dipalmitoyl-PI. 2 mg PI was coupled to defatted BSA according to published protocols (Bate, C. A. W., Taverne, J., Kwiatkowski, D., and Playfair, J. H. L. (1993) Immunology 79:138-145).
From a 1/32 dilution, sera or mAbs were titrated two-fold in 1% BSA in PBS, 0.05% Tween-20, and pre-incubated for 4 hours at room temperature with a molar excess of competitior (20 μg/ml PI, or phosphatidylserine (PS), or diluent alone). Antigen (BSA-PI or BSA alone) at 20 μg/ml in phosphate binding buffer was incubated overnight in 50 μl volumes in flat-bottomed Immunlon 96-well plates, followed by extensive washing with buffer. The plates were blocked with 1% BSA in PBS for several hours. 50 μl aliquots of titrated antibody with or without competitor were incubated in triplicate for 2 hours at room temperature, followed by extensive washing with 1% BSA 0.05% Tween-20 in PBS. An aliquot of affinity purified, biotin-labelled isotype specific goat anti-mouse second antibody was incubated as above, followed by further washing and the addition of streptavidin-alkaline phosphatase. […] Background binding to BSA-coated plates was determined in parallel. […]

P. berghei ANKA = P. berghei ANKA cerebral malaria challenge of immunized mice; format: in vivo, C57Bl/6 mice
Excerpt: Mice were immunized by three successive boosts of free intact malarial GPI emulsified in Incomplete Freund's Adjuvant spaced two weeks apart. Control mice received an equal amount of IFA alone. After immunization, sera were bled and the titres of anti-GPI antibodies determined by ELISA. All animals immunized with GPI developed broadly similar levels of anti-GPI antibodies (range 1/1024-1/4096) among individual animals. […] Two weeks after the final boost mice were challenged with P. berghei ANKA. Parasitaemia, the development of neurological complications, and mortality were recorded daily. No difference in parasitaemia was observed. In the control group, 100% of animal manifested between day 5 and 9 an aggressive cerebral syndrome with neurological signs proceeding to rapid death with 12 hours. […]
The P. berghei ANKA murine cerebral malaria model has many features in common with the human cerebral malaria syndrome. […] Parasitaemia, the development of neurological complications, and mortality were recorded daily. […]

[6] = format: in vivo, C3H/HeJ and C57B16 mice; details: primed with 20 mg D-galactosamine, agent after 1 hour
Procedure: In addition a standard murine model of TNF-driven lethality was used to determine whether GPI mediates parasite-induced acute toxic shock. This model manifests disseminated intravascular coagulation, peripheral vascular failure and shock, and thus has clinical features in common with the human “algid malaria” syndrome. LPS-non-responsive C3H/HeJ and C57B16 mice were primed with 20 mg D-galactosamine followed after 1 hour by purified GPI, PE or PBS alone.

| Substance | immunogenicity [1] | detection of antibodies in human serum [2] | competition of human antibody responses to native GPI [3] | isotype of the anti-GPI response [4] | epitope specificity of the antibody response [5] | parasitaemia (P. berghei ANKA; after P. berghei ANKA challenge two weeks after final boost, vs control groups) | rate of deaths (P. berghei ANKA; free GPI in IFA vs IFA alone, P. berghei ANKA challenge) | recipients with lethal shock [6] |
| --- | --- | --- | --- | --- | --- | --- | --- | --- |
| NH2—CH2—CH2—PO4-(Manα1-2)6Manα1-2Manα1-6Manα1-4GlcNH2α1-6myo-Insositol-1,2 cyclic phosphate [synthetic GPI glycan] | immunogenic | able specifically to detect anti-Glycan antibodies in human serum | compete out the majority of human antibody responses to the native GPI toxin | – | – | – | – | – |
| NH—CH2—CH2—PO4-(Manα1-2)-6Manα1-2Manα1-6Manα1-4GlcN-H2α1-6(myristoyl)-myo-Inositol-1-PO4-dipalmitoylglycerol [free GPI] | – | – | – | predominantly IgM | directed predominantly towards the lipidic (phosphatidylinositol, PI) domain of the molecule | No difference | noticeable faster rate | 100% |
